Where “and” joins values, the source holds several entries; their conditions need not be identical. Identical values can stand only once.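 Results reflect a 48-hour exposure of cells in 96-well plates to compound at five concentrations. Here, GI50 denotes the concentration required for 50% inhibition of growth. TGI: concentration producing complete growth inhibition.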
Key:
Assay in all cases: DTP human tumour cell line panel, 48 h
[1] = test system: MALME-3M melanoma
[2] = test system: SK-MEL-2 melanoma
[3] = test system: NCI/ADR-RES ovarian
[4] = test system: UACC-257 melanoma
[5] = test system: SF-539 CNS
[6] = test system: SNB-75 CNS
[7] = test system: IGROV1 ovarian
[8] = test system: HOP-92 NSCLC
[9] = test system: MCF7 breast
[10] = test system: OVCAR-4 ovarian

| SMILES | TGI [1] | TGI [2] | TGI [3] [µM] | TGI [4] | TGI [5] | TGI [6] | TGI [7] [µM] | TGI [8] | TGI [9] [µM] | TGI [10] | GI50 [1] [µM] | GI50 [2] [µM] | GI50 [3] [µM] | GI50 [4] [µM] | GI50 [5] [µM] | GI50 [6] [µM] | GI50 [7] [µM] | GI50 [8] [µM] | GI50 [9] [µM] | GI50 [10] [µM] |
| --- | --- | --- | --- | --- | --- | --- | --- | --- | --- | --- | --- | --- | --- | --- | --- | --- | --- | --- | --- | --- |
| C=C1C(=O)OC2/C=C(\CO)C(OC(C)=O)CC(O)/C(C)=C/C(OC(=O)C(C)CC)C12 (stereo not given) | 31.2 µM and 32 µM | 32.3 µM and 33.1 µM | > 100 | 28.9 µM and 38.5 µM | 37.9 µM and 66 µM | 69.3 µM and 96.3 µM | > 100 | 35 µM and 63.2 µM | 25.8 | 32.5 µM and > 100 µM | – | – | – | – | – | – | – | – | – | – |
| Nc1c2ccccc2nc2c1ccc1ncccc12 | 27 µM | 42.1 µM | 89.1 | > 100 µM | 49.9 µM | 99.4 µM | > 100 | > 100 µM | 72.1 | 63 µM | – | – | – | – | – | – | – | – | – | – |
| O=C1NCCCc2nonc21 | > 100 µM | > 100 µM | > 100 | > 100 µM | > 100 µM | > 100 µM | > 100 | > 100 µM | > 100 | > 100 µM | – | – | – | – | – | – | – | – | – | – |
| CC(C)(C)N=c1n(C(C)(C)C)oc(=O)n1C(C)(C)C | > 100 µM | > 100 µM | > 100 | > 100 µM | > 100 µM | > 100 µM | > 100 | > 100 µM | > 100 | > 100 µM | – | – | – | – | – | – | – | – | – | – |
| CCOC(=O)C1=C(C(C)=O)CSC(c2ccccc2)=N1 | > 100 µM | > 100 µM | > 100 | > 100 µM | > 100 µM | > 100 µM | > 100 | > 100 µM | > 100 | > 100 µM | – | – | – | – | – | – | – | – | – | – |
| Cc1ccccc1OC(C)C(=O)NN1C(=O)CC(=O)N(c2ccc(Cl)cc2)C1=S (stereo not given) | > 100 µM | > 100 µM | > 100 | > 100 µM | > 100 µM | > 100 µM | > 100 | 56.1 µM | > 100 | > 100 µM | – | – | – | – | – | – | – | – | – | – |
| COc1cc(/C=C/C(=O)O)ccc1C(=O)O/C=C/c1ccccc1 | > 100 µM | > 100 µM | > 100 | > 100 µM | > 100 µM | > 100 µM | > 100 | > 100 µM | > 100 | > 100 µM | – | – | – | – | – | – | – | – | – | – |
| COc1ccc2c(c1)O/C(=C\c1cccc(OCC(=O)Nc3nc4c(s3)CCCC4)c1)C2=O | 5.34 µM | > 30.6 µM | > 100 | > 100 µM | 44.1 µM | 54.9 µM | 2.17 | 18.5 µM | > 100 | > 100 µM | 2.39 | 12.5 | 60.8 | > 100 | 16.7 | 11.5 | 0.692 | 3.68 | 12.8 | > 100 |
| CC(=O)OC(C)c1cc2c(s1)C(=O)c1sccc1C2=O (stereo not given) | 0.407 µM | 2.41 µM | 5.08 | 0.441 µM | 0.689 µM | 2.63 µM | 4.19 | 16.7 µM | 3.9 | 3.5 µM | – | – | – | – | – | – | – | – | – | – |
| Oc1ccc(-c2nnc3sc(-c4ccc(F)cc4)nn23)cc1 | > 100 µM | > 100 µM | > 100 | > 100 µM | > 100 µM | 43.3 µM | > 100 | > 100 µM | > 100 | > 100 µM | > 100 | > 100 | 43.6 | > 100 | 36.5 | 22.8 | 55.8 | 46.1 | 59.7 | > 100 |
